Results: US8545886B2, “Extended release tablet formulations of flibanserin and method for manufacturing the same” (Boehringer Ingelheim International GmbH, priority 2006, dated 2013)
Converted amounts (≈) assume the structure as drawn.

Assay: Solubility of flibanserin in aqueous media
Assay type: physicochemical
Source text: In acidic environment compounds such as flibanserin are usually very well water soluble whereas in neutral or basic environment these drugs can be practically insoluble. […] These physicochemical properties of basic compounds make it difficult to develop extended release dosage forms. There is a natural pH gradient from the acidity of the stomach where the pH of physiological fluids are typically around 1-2, through the weakly acidic duodenum to the virtually neutral environment of the small intestine where the pH is in the range of 5-8.

With `O=c1[nH]c2ccccc2n1CCN1CCN(c2cccc(C(F)(F)F)c2)CC1` [flibanserin, 1,3-dihydro-1-[2-[4-[3-(trifluoromethyl)phenyl]-1-piperazinyl]ethyl]-2H-benzimidazole-2-one] the solubility (aqueous buffer, in 0.05 M phosphate buffer pH 6.8) was 2 µg/mL (≈ 0.00512 mM) and the solubility (simulated gastric fluid, in 0.1 N HCl) was 6200 µg/mL (≈ 15.9 mM).
